Measured values as given in PubChem BioAssay (NCI).
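Grown in 96-well plates, cells were treated for 48 hours with each compound at five concentrations. Insufficient inhibition: endpoint recorded as highest concentration tested. The concentration for full growth arrest is given as TGI.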

Legend:
Test in all cases: NCI-60 cell line screen, 48 h
[1] = tested on: NCI/ADR-RES ovarian
[2] = tested on: NCI-H23 lung
[3] = tested on: SF-268 CNS
[4] = tested on: CCRF-CEM leukemia
[5] = tested on: K-562 leukemia
[6] = tested on: SNB-19 CNS
[7] = tested on: A549 NSCLC
[8] = tested on: OVCAR-3 ovarian
[9] = tested on: HT29 colon
[10] = tested on: BT-549 breast

Row | SMILES | TGI [1] [µM] | TGI [2] [µM] | TGI [3] [µM] | TGI [4] [µM] | TGI [5] [µM] | TGI [6] [µM] | TGI [7] [µM] | TGI [8] [µM] | TGI [9] [µM] | TGI [10] [µM]
1 | COc1cc(S(=O)(=O)Nc2ccc(-c3csc(N4C(=O)C(Cl)C4c4ccccc4O)n3)cc2)ccc1Cl (stereo not given) | > 100 | 80.5 | > 100 | 9.13 | > 100 | > 100 | > 100 | > 100 | > 100 | > 100
2 | CCOC(=O)CCc1cn2cc(Br)nc(OC)c2n1 | > 100 | > 100 | > 100 | > 100 | > 100 | > 100 | > 100 | > 100 | > 100 | > 100
3 | CCOc1ccc2nc3nc(=O)[nH]c(C)c3c(NC(C)(CO)CO)c2c1 | > 100 | > 100 | > 100 | > 100 | > 100 | > 100 | > 100 | > 100 | > 100 | > 100
